Laboratory results from patent publication US6455593B1, “Method of dynamic retardation of cell cycle kinetics to potentiate cell damage” (priority 1995, dated 2002).
Like-named read-outs stand apart in the source and are kept apart here.

How the values were obtained:
[1] = test system: human promonocytic lymphoma cells (U937); assay: Microculture indicator system (MIS), MTT growth inhibition assay with bivariate serial dilutions; type: cell-based
Description: Microcultures of human promonocytic lymphoma cells (U937) (“the U937 cells”) originally obtained from the American Type Culture Collection (CRL 1593) and later grown by Dr. K. Zoon at the FDA in Bethesda, Md. were set up in a multiwell plate with serial two-fold dilutions of dThd in tissue culture growth medium (RPMI 1640 plus 10% Nurserum and antibiotics). The volume of medium per well was 100 μl and the cell number per well was about 1×10^5. The plate was incubated at 37° C. for 24 hr.
A dye, 3-[4,5-dimethylthiazol-2-yl]-2,5-diphenyl-tetrazolium bromide (MTT), was used as a chromogenic indicator of the metabolically active cell mass. Viable cells metabolize the dye and accumulate a reduced formazan product (blue color) which is solubilized for colorimetry. Mossman T, J. Immunol. Methods 5:55-63 (1983); Li L and Lau B H S, In Vitro Cell Dev. Biol. 29A:531-536 (1993). The MTT assay has been established as useful for measuring either growth inhibition or population killing. Plowman, supra. The MTT method is ideal for cells tested in suspension growth, and can also be used for some cells growing in monolayers. […] Alley, supra; Hofs, supra; Wilson J K et al., Br. J. Cancer 62:189-94 (1990); Plowman, supra.
Thirty μl of 0.5% MTT in phosphate buffered saline was added to each microculture well at the appropriate time. After incubation at 37° C. for 3 hr, 120 μl of an aqueous solution of 10 % SDS with 0.01 N HCl was added to release and dissolve formazan product. This was accomplished by overnight incubation of the plate at 37° C. After careful mixing of the microwell contents by placing the plates on an orbital shaker for 5 minutes the absorbencies were quantitated by spectrophotometry at 570 nm with a Ceres UV 900 HDI microwell plate reader (from Biotek Instruments Inc, Winooski, Vt. 05404-0998). Absorbance data was normalized to a blank well containing all reagents without cells and was collected semi-automatically.
Flat-bottom 96-well plates of tissue culture quality (Corning or Costar) were set up with two-fold serial dilutions of each agent to be tested, e.g., the RA and TCI, using a multichannel pipettor with adjustable volume, e.g., Costar or Rainin, to perform serial mixing. This set-up is diagrammed in FIG. 12. […] In each plate, a total of 59 wells then contained bivariate agent combinations, the bivariate serial dilutions.
Agents were serially diluted by serial mixing in two separate plates or series of wells, and then were combined prior to addition of a fixed volume and density of the U937 cells in a suspension calculated to deliver about 1×10^5 cells per well.
Cells were added after serial dilutions of the dThd had been dispensed. Cells were dispensed at about 10×10^4 cells per microwell to provide optimal sensitivity of detection of cell damage in subsequent calorimetric assays. […] The final volume of medium was 100 μl/well. The plates were further incubated at 37° C. for a total duration of 18-24 h. The dye MTT was used as a chromogenic indicator of the residual and metabolically active cell mass. (Described in Example 1).
In this MTT assay, normalized absorbance data was collected semi-automatically from each microculture well with a Ceres UV 900 HD1 plate reader, from Biotek Instruments Inc., Winooski, V T 05404-0998, stored in an EIA file under the Ceres 900 program, transferred in comma delimited format to a floppy diskette, and imported into a spread sheet program (Borland Quattro Pro) for data manipulations.

[2] = test system: human malignant lymphoma cells (U937); assay: Clonogenic assay in methylcellulose; type: cell-based; conditions: Homo sapiens, U-937, 96 h, read-out: Maximum effective cytotoxicity (1-C/C0), clonogenic
Excerpt: Elimination of a targeted cell population by a cytotoxic agent or agent combinations can not be assured if cells with generative capacity survive. The clonogenic assay in soft agar or methylcellulose is a practical and useful means of determining long-term effects of cytotoxic agents on a malignant cell population, since malignant cells are often capable of growing and forming colonies in these media. The colony forming efficiency of any line or population of malignant cells must be established from the colony count in relationship to the inoculum number and varies over a wide range. […] (same protocol as Example 2A, Table 7). Methylcellulose (MC) solution 2.1-2.3% was obtained from Stem Cell Technologies in Vancouver, B.C. and made up in a series of sterile tubes: (a) 0.4 ml MC stock solution, (b) 50 μl of NuSerum, (c) 2×10^4 cells from the treated cell suspension from the 24-well plate (about 250 μl) and (d) complete growth medium to make a final volume of 1 ml (final cell density=about 2×10^4 cells). A syringe with 18 g. needle was used to transfer load 100 μl of each sample the final cell preparation to each of triplicate wells in a 96-well plate. Thus the final cell number was about 2,000 cells/well. Plates were examined daily for colony formation. At days 3-5, colonies were counted. and colonies were overlaid with MTT: 25 μl, incubated overnight at 37° C. and 100 μl of 4% formalin was added to aid visualization and photography. […] The effective cytotoxicity was calculated as 1−C/C0 where C=the number of colonies formed by a sample of treated cells and C0=the number of colonies formed by an equal sample of untreated cells.

Work on Cc1cn([C@H]2C[C@H](O)[C@@H](CO)O2)c(=O)[nH]c1=O [dThd, deoxythymidine] yielded an inhibition at 190 µM ([1]; Homo sapiens, U-937, read-out: Growth inhibition (MTT), dThd […], U937, dThd […] for 4 H, STSP for 14 H, total 18 H, STSP nM: 100,50,25,12.5,6.25,3.125, r14 dThd alone, read-out: Growth inhibition (MTT), dThd 0.19 mM) of 18%, an inhibition at 380 µM ([1]; Homo sapiens, U-937, read-out: Growth inhibition (MTT), dThd […], U937, dThd […] for 4 H, STSP for 14 H, total 18 H, STSP nM: 100,50,25,12.5,6.25,3.125, r14 dThd alone, read-out: Growth inhibition (MTT), dThd 0.38 mM) of 23% and an inhibition at 750 µM ([1]; Homo sapiens, U-937, read-out: Growth inhibition (MTT), dThd […], U937, dThd […] for 4 H, STSP for 14 H, total 18 H, STSP nM: 100,50,25,12.5,6.25,3.125, r14 dThd alone, read-out: Growth inhibition (MTT), dThd 0.75 mM) of 34%. It also gave an inhibition at 1500 µM ([1]; Homo sapiens, U-937, read-out: Growth inhibition (MTT), dThd […], U937, dThd […] for 4 H, STSP for 14 H, total 18 H, STSP nM: 100,50,25,12.5,6.25,3.125, r14 dThd alone, read-out: Growth inhibition (MTT), dThd 1.5 mM) of 41%, an inhibition at 190 µM ([1]; Homo sapiens, U-937, read-out: Growth inhibition (MTT), dThd for 0 H, dThd […], U937, dThd […] for 0 H (added with STSP), STSP for 18 H, total 18 H, STSP nM: 100,50,25,12.6,6.25,3.13, r28 dThd alone, read-out: Growth inhibition (MTT), dThd for 0 H, dThd 0.19 mM) of 15% and an inhibition at 380 µM ([1]; Homo sapiens, U-937, read-out: Growth inhibition (MTT), dThd for 0 H, dThd […], U937, dThd […] for 0 H (added with STSP), STSP for 18 H, total 18 H, STSP nM: 100,50,25,12.6,6.25,3.13, r28 dThd alone, read-out: Growth inhibition (MTT), dThd for 0 H, dThd 0.38 mM) of 20%. For the same compound, the inhibition at 760 µM ([1]; Homo sapiens, U-937, read-out: Growth inhibition (MTT), dThd for 0 H, dThd […], U937, dThd […] for 0 H (added with STSP), STSP for 18 H, total 18 H, STSP nM: 100,50,25,12.6,6.25,3.13, r28 dThd alone, read-out: Growth inhibition (MTT), dThd for 0 H, dThd 0.76 mM) was 27%, the inhibition at 1500 µM ([1]; Homo sapiens, U-937, read-out: Growth inhibition (MTT), dThd for 0 H, dThd […], U937, dThd […] for 0 H (added with STSP), STSP for 18 H, total 18 H, STSP nM: 100,50,25,12.6,6.25,3.13, r28 dThd alone, read-out: Growth inhibition (MTT), dThd for 0 H, dThd 1.50 mM) was 33% and the “Enhancement of DEET-induced apoptosis as prospective RA” value ([1]; MTT tests, about 0.05 to 3 mM, preliminary results) was “no significant enhancement of the DEET-induced apoptosis”. The “dThd concentration at maximum difference between the plots for O and S” value ([1]; O/S plots of dThd and STSP, FIG. 15, U937) was “approximately 0.1 mM”, the “RA concentration for STSP potentiation relative to concentration causing cell cycle arrest” value ([1]; U937) was “at least one log lower” and the “Combined results ratio (CRR), dThd for 0 H, dThd 0.02 mM” value ([1]; U937, dThd 0.02 mM for 0 H (added with STSP), STSP for 18 H, total 18 H, STSP nM: 100,50,25,12.6,6.25,3.13, r27 dThd alone) was 1.0. For the same compound, the “Combined results ratio (CRR), dThd 0.02 mM” value ([1]; U937, dThd 0.02 mM for 4 H, STSP for 14 H, total 18 H, STSP nM: 100,50,25,12.5,6.25,3.125, r13 dThd alone) was 1.0, the “Combined results ratio (CRR), dThd 0.05 mM” value ([1]; U937, dThd 0.05 mM for 4 H, STSP for 14 H, total 18 H, STSP nM: 100,50,25,12.5,6.25,3.125, r13 dThd alone) was 1.0 and the “Combined results ratio (CRR), dThd for 0 H, dThd 0.06 mM” value ([1]; U937, dThd 0.06 mM for 0 H (added with STSP), STSP for 18 H, total 18 H, STSP nM: 100,50,25,12.6,6.25,3.13, r27 dThd alone) was 1.0. For the same compound, the “Combined results ratio (CRR), dThd for 0 H, dThd 0.09 mM” value ([1]; U937, dThd 0.09 mM for 0 H (added with STSP), STSP for 18 H, total 18 H, STSP nM: 100,50,25,12.6,6.25,3.13, r27 dThd alone) was 1.0, the “Combined results ratio (CRR), dThd 0.09 mM” value ([1]; U937, dThd 0.09 mM for 4 H, STSP for 14 H, total 18 H, STSP nM: 100,50,25,12.5,6.25,3.125, r13 dThd alone) was 1.0 and the “Combined results ratio (CRR), dThd for 0 H, dThd 3.00 mM” value ([1]; U937, dThd 3.00 mM for 0 H (added with STSP), STSP for 18 H, total 18 H, STSP nM: 100,50,25,12.6,6.25,3.13, r27 dThd alone) was 1.0. For the same compound, the “Combined results ratio (CRR), dThd 3.00 mM” value ([1]; U937, dThd 3.00 mM for 4 H, STSP for 14 H, total 18 H, STSP nM: 100,50,25,12.5,6.25,3.125, r13 dThd alone) was 1.0, the “Combined results ratio (CRR), dThd for 0 H, dThd […]” value ([1]; U937, dThd […] for 0 H (added with STSP), STSP for 18 H, total 18 H, STSP nM: 100,50,25,12.6,6.25,3.13, r27 dThd alone) was 1.0 and the “Combined results ratio (CRR), dThd […]” value ([1]; U937, dThd […] for 4 H, STSP for 14 H, total 18 H, STSP nM: 100,50,25,12.5,6.25,3.125, r13 dThd alone) was 1.0. For the same compound, the “combined results ratio, dThd only (baseline line)” value ([1]; U937, dThd alone, every dThd concentration 3.00-0.01 mM) was 1.0 and the Emax at 100 µM [2] was 40 to 60%.
